{"source": "patent US20250195530A1", "about": "“POLQ INHIBITORS” (ASTRAZENECA AB, priority 2022, published 2025)", "data": [{"test_system": "DLD-1 BRCA2−/− cells", "test": "Homologous recombination synthetic lethal inhibition of proliferation, DLD-1 BRCA2-/- (Cell Titre Glo 3D)", "type": "cell-based", "settings": "Homo sapiens, DLD-1, first proliferation column (c5); DLD-1 BRCA2-/-; read-out: POLQ PD Prolif Lumin (converted)", "outline": "(§1)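 Read-out: CellTiter-Glo 3D luminescence, day 7 for wt DLD-1, day 12 for BRCA2−/−, about 8-9 population doublings each. Seeding 1,500 or 3,000 cells/mL respectively. Dose range 10 μM–0.51 nM, 3-fold, 10 points, with re-dosing on day 6. IC50 from curve fit.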", "units": {"IC50": "nM"}, "values": [{"smiles": "CC1(Oc2ncnc3c2nc(-c2ccc(OCCN4C[C@@H]5C[C@H]4CN5)cc2Cl)n3Cc2cc(Cl)ccn2)CC1", "note": "[Example T487, 8-(4-(2-((1S,4S)-2,5-diazabicyclo[2.2.1]heptan-2-yl)ethoxy)-2-chlorophenyl)-9-((4-chloropyridin-2-yl)methyl)-6-(1-methylcyclopropoxy)-9H-purine]", "IC50": 398}, {"smiles": "Cc1ccnc(Cn2c(-c3ccc(N4CCC5(CNC5)C4)cc3Cl)nc3c(OC4(C)CC4)ncnc32)c1", "note": "[Example T490, 8-(2-chloro-4-(2,6-diazaspiro[3.4]octan-6-yl)phenyl)-6-(1-methylcyclopropoxy)-9-((4-methylpyridin-2-yl)methyl)-9H-purine]", "IC50": 2000}, {"smiles": "Cc1ccnc(Cn2c(-c3ccc(N4CCC5NCCC54)cc3Cl)nc3c(OC4(C)CC4)ncnc32)c1", "note": "(stereo not shown) [Example T492, 8-(2-chloro-4-(hexahydropyrrolo[3,2-b]pyrrol-1(2H)-yl)phenyl)-6-(1-methylcyclopropoxy)-9-((4-methylpyridin-2-yl)methyl)-9H-purine]", "IC50": 398}, {"smiles": "Cc1ccnc(Cn2c(-c3ccc(N4C[C@H]5CCN[C@H]5C4)cc3Cl)nc3c(OC4(C)CC4)ncnc32)c1", "note": "[Example T494, 8-(2-chloro-4-((3aR,6aR)-hexahydropyrrolo[3,4-b]pyrrol-5(1H)-yl)phenyl)-6-(1-methylcyclopropoxy)-9-((4-methylpyridin-2-yl)methyl)-9H-purine]", "IC50": 316}, {"smiles": "CNC(=O)[C@H]1CCN(c2ccc(-c3nc4c(OC5(C)CC5)ncnc4n3Cc3cc(C)ccn3)c(Cl)c2)C1", "note": "[Example T497, (S)-1-(3-chloro-4-(6-(1-methylcyclopropoxy)-9-((4-methylpyridin-2-yl)methyl)-9H-purin-8-yl)phenyl)-N-methylpyrrolidine-3-carboxamide]", "IC50": 501}, {"smiles": "Cc1ccnc(Cn2c(-c3ccc(OCCN4CCNCC4=O)cc3Cl)nc3c(OC4(C)CC4)ncnc32)c1", "note": "[Example T498, 1-(2-(3-chloro-4-(6-(1-methylcyclopropoxy)-9-((4-methylpyridin-2-yl)methyl)-9H-purin-8-yl)phenoxy)ethyl)piperazin-2-one]", "IC50": 316}, {"smiles": "Cc1ccnc(Cn2c(-c3ccc(OCCN4CCNC(=O)C4)cc3Cl)nc3c(OC4(C)CC4)ncnc32)c1", "note": "[Example T499, 4-(2-(3-chloro-4-(6-(1-methylcyclopropoxy)-9-((4-methylpyridin-2-yl)methyl)-9H-purin-8-yl)phenoxy)ethyl)piperazin-2-one]", "IC50": 316}, {"smiles": "CNC(=O)N1CC[C@@H](Oc2ccc(-c3nc4c(OC5(C)CC5)ncnc4n3Cc3cc(C)ccn3)c(Cl)c2)C1", "note": "[Example T501, (R)-3-(3-chloro-4-(6-(1-methylcyclopropoxy)-9-((4-methylpyridin-2-yl)methyl)-9H-purin-8-yl)phenoxy)-N-methylpyrrolidine-1-carboxamide]", "IC50": 794}, {"smiles": "Cc1ccnc(Cn2c(-c3ccc(CC(=O)NCC(C)(C)O)cc3Cl)nc3c(OC4(C)CC4)ncnc32)c1", "note": "[Example T515, 2-(3-chloro-4-(6-(1-methylcyclopropoxy)-9-((4-methylpyridin-2-yl)methyl)-9H-purin-8-yl)phenyl)-N-(2-hydroxy-2-methylpropyl)acetamide]", "IC50": 631}, {"smiles": "Cc1ccnc(Cn2c(-c3ccc(OCC(=O)N[C@H](C)CCO)cc3Cl)nc3c(OC4(C)CC4)ncnc32)c1", "note": "[Example T516, (R)-2-(3-chloro-4-(6-(1-methylcyclopropoxy)-9-((4-methylpyridin-2-yl)methyl)-9H-purin-8-yl)phenoxy)-N-(4-hydroxybutan-2-yl)acetamide]", "IC50": 200}, {"smiles": "Cc1ccnc(Cn2c(-c3ccc(OCC(=O)NCC(C)(C)O)cc3Cl)nc3c(OC4(C)CC4)ncnc32)c1", "note": "[Example T517, 2-(3-chloro-4-(6-(1-methylcyclopropoxy)-9-((4-methylpyridin-2-yl)methyl)-9H-purin-8-yl)phenoxy)-N-(2-hydroxy-2-methylpropyl)acetamide]", "IC50": 398}, {"smiles": "CC[C@H](CO)NC(=O)COc1ccc(-c2nc3c(OC4(C)CC4)ncnc3n2Cc2cc(C)ccn2)c(Cl)c1", "note": "[Example T518, (R)-2-(3-chloro-4-(6-(1-methylcyclopropoxy)-9-((4-methylpyridin-2-yl)methyl)-9H-purin-8-yl)phenoxy)-N-(1-hydroxybutan-2-yl)acetamide]", "IC50": 398}, {"smiles": "Cc1ccnc(Cn2c(-c3ccc(OCC(=O)NC(C)(C)CO)cc3Cl)nc3c(OC4(C)CC4)ncnc32)c1", "note": "[Example T519, 2-(3-chloro-4-(6-(1-methylcyclopropoxy)-9-((4-methylpyridin-2-yl)methyl)-9H-purin-8-yl)phenoxy)-N-(1-hydroxy-2-methylpropan-2-yl)acetamide]", "IC50": 316}, {"smiles": "CC[C@@H](O)CNC(=O)COc1ccc(-c2nc3c(OC4(C)CC4)ncnc3n2Cc2cc(C)ccn2)c(Cl)c1", "note": "[Example T520, (R)-2-(3-chloro-4-(6-(1-methylcyclopropoxy)-9-((4-methylpyridin-2-yl)methyl)-9H-purin-8-yl)phenoxy)-N-(2-hydroxybutyl)acetamide]", "IC50": 398}, {"smiles": "C[C@@H]1CNCCN1CCOc1ccc(-c2nc3c(OC4(C)CC4)ncnc3n2Cc2cc(Cl)ccn2)c(Cl)c1", "note": "[Example T522, (R)-8-(2-chloro-4-(2-(2-methylpiperazin-1-yl)ethoxy)phenyl)-9-((4-chloropyridin-2-yl)methyl)-6-(1-methylcyclopropoxy)-9H-purine]", "IC50": 251}, {"smiles": "Cc1ccnc(Cn2c(-c3ccc(OCC(=O)N4CC[C@@H](C#N)C4)cc3Cl)nc3c(OC4(C)CC4)ncnc32)c1", "note": "[Example T538, (R)-1-(2-(3-chloro-4-(6-(1-methylcyclopropoxy)-9-((4-methylpyridin-2-yl)methyl)-9H-purin-8-yl)phenoxy)acetyl)pyrrolidine-3-carbonitrile]", "IC50": 501}, {"smiles": "Cc1ccnc(Cn2c(-c3ccc(OCC(=O)N4CCC[C@H]4C#N)cc3Cl)nc3c(OC4(C)CC4)ncnc32)c1", "note": "[Example T539, (S)-1-(2-(3-chloro-4-(6-(1-methylcyclopropoxy)-9-((4-methylpyridin-2-yl)methyl)-9H-purin-8-yl)phenoxy)acetyl)pyrrolidine-2-carbonitrile]", "IC50": 316}, {"smiles": "Cc1ccnc(Cn2c(-c3ccc(OCC(=O)N4C[C@H]5C[C@@H](C4)O5)cc3Cl)nc3c(OC4(C)CC4)ncnc32)c1", "note": "[Example T550, rel-1-((1R,5S)-6-oxa-3-azabicyclo[3.1.1]heptan-3-yl)-2-(3-chloro-4-(6-(1-methylcyclopropoxy)-9-((4-methylpyridin-2-yl)methyl)-9H-purin-8-yl)phenoxy)ethan-1-one]", "IC50": 316}, {"smiles": "Cc1ccnc(Cn2c(-c3ccc(OCC(=O)N4CCC[C@H](F)C4)cc3Cl)nc3c(OC4(C)CC4)ncnc32)c1", "note": "[Example T552, (S)-2-(3-chloro-4-(6-(1-methylcyclopropoxy)-9-((4-methylpyridin-2-yl)methyl)-9H-purin-8-yl)phenoxy)-1-(3-fluoropiperidin-1-yl)ethan-1-one]", "IC50": 158}, {"smiles": "Cc1ccnc(Cn2c(-c3ccc(OCC(=O)N4CCC(F)CC4)cc3Cl)nc3c(OC4(C)CC4)ncnc32)c1", "note": "[Example T553, 2-(3-chloro-4-(6-(1-methylcyclopropoxy)-9-((4-methylpyridin-2-yl)methyl)-9H-purin-8-yl)phenoxy)-1-(4-fluoropiperidin-1-yl)ethan-1-one]", "IC50": 200}, {"smiles": "Cc1ccnc(Cn2c(-c3ccc(CC(=O)N4CC5(CCN5)C4)cc3Cl)nc3c(OC4(C)CC4)ncnc32)c1", "note": "[Example T556, 2-(3-chloro-4-(6-(1-methylcyclopropoxy)-9-((4-methylpyridin-2-yl)methyl)-9H-purin-8-yl)phenyl)-1-(1,6-diazaspiro[3.3]heptan-6-yl)ethan-1-one]", "IC50": 6310}, {"smiles": "Cc1ccnc(Cn2c(-c3ccc(CC(=O)N4C5CNCC4C5)cc3Cl)nc3c(OC4(C)CC4)ncnc32)c1", "note": "[Example T557, 1-(3,6-diazabicyclo[3.1.1]heptan-6-yl)-2-(3-chloro-4-(6-(1-methylcyclopropoxy)-9-((4-methylpyridin-2-yl)methyl)-9H-purin-8-yl)phenyl)ethan-1-one]", "IC50": 6310}, {"smiles": "Cc1ccnc(Cn2c(-c3ccc(CC(=O)N4CC5(CNC5)C4)cc3Cl)nc3c(OC4(C)CC4)ncnc32)c1", "note": "[Example T558, 2-(3-chloro-4-(6-(1-methylcyclopropoxy)-9-((4-methylpyridin-2-yl)methyl)-9H-purin-8-yl)phenyl)-1-(2,6-diazaspiro[3.3]heptan-2-yl)ethan-1-one]", "IC50": "> 10000"}, {"smiles": "CC(C)(CCOc1ccc(-c2nc3c(OC4(C)CC4)ncnc3n2Cc2cccc(Cl)c2)c(Cl)c1)CC(=O)O", "note": "[Example T562, 5-(3-chloro-4-(9-(3-chlorobenzyl)-6-(1-methylcyclopropoxy)-9H-purin-8-yl)phenoxy)-3,3-dimethylpentanoic acid]", "IC50": 126}, {"smiles": "CC1(Oc2ncnc3c2nc(-c2cccc(OCCCCCCC(=O)O)c2Cl)n3Cc2cccc(Cl)c2)CC1", "note": "[Example T564, 7-(2-chloro-3-(9-(3-chlorobenzyl)-6-(1-methylcyclopropoxy)-9H-purin-8-yl)phenoxy)heptanoic acid]", "IC50": 31.6}, {"smiles": "CC1(Oc2ncnc3c2nc(-c2cccc(OCCCC(C)(C)C(=O)O)c2Cl)n3Cc2cccc(Cl)c2)CC1", "note": "[Example T565, 5-(2-chloro-3-(9-(3-chlorobenzyl)-6-(1-methylcyclopropoxy)-9H-purin-8-yl)phenoxy)-2,2-dimethylpentanoic acid]", "IC50": 100}, {"smiles": "CC1(Oc2ncnc3c2nc(-c2ccc(OCCN4CCNCC4C(F)F)cc2Cl)n3Cc2ccccc2)CC1", "note": "(stereo not shown) [Example T567, 9-benzyl-8-(2-chloro-4-(2-(2-(difluoromethyl)piperazin-1-yl)ethoxy)phenyl)-6-(1-methylcyclopropoxy)-9H-purine]", "IC50": 158}]}, {"test_system": "DLD-1 BRCA2−/− cells", "test": "Homologous recombination synthetic lethal inhibition of proliferation, DLD-1 BRCA2-/- (Cell Titre Glo 3D)", "type": "cell-based", "settings": "Homo sapiens, DLD-1, first proliferation column; DLD-1 BRCA2-/-; read-out: POLQ PD Prolif Lumin (converted)", "outline": "as §1", "units": {"IC50": "nM"}, "values": [{"smiles": "Cc1ccnc(Cn2c(-c3ccc(CC(=O)N4CC[C@](C)(O)C4)cc3Cl)nc3c(OC4(C)CC4)ncnc32)c1", "note": "[Example T575, (S)-2-(3-chloro-4-(6-(1-methylcyclopropoxy)-9-((4-methylpyridin-2-yl)methyl)-9H-purin-8-yl)phenyl)-1-(3-hydroxy-3-methylpyrrolidin-1-yl)ethan-1-one]", "IC50": 316}]}]}
